The values that follow come from ChEMBL document CHEMBL1201862, “PubChem BioAssay data set” (2004).

Assay in all cases: inhibition of tumour cell growth, NCI panel, 48 h
Assay [1] deals with MCF7.
In assay [2] the test system is BT-549.
For assay [3], the system named is IGROV-1.
Assay [4] has as its system MDA-MB-231.
In assay [5] the test system is NCI-H23.
Assay [6] deals with MDA-N.
Assay [7] deals with OVCAR-5.
The test system of assay [8] is CCRF-CEM.
The subject of assay [9] is EKVX.
The subject of assay [10] is UACC-62.
For assay [11], the system named is SR.
Assay [12] concerns ACHN.
The subject of assay [13] is CAKI-1.
The subject of assay [14] is SK-MEL-5.
Assay [15] deals with SF-539.
In assay [16] the test system is MDA-MB-435.
For assay [17], the system named is M14.
For assay [18], the system named is A498.
In assay [19] the test system is HOP-92.
Assay [20] has as its system HCC 2998.

Structures are written as SMILES.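 Results reflect a 48-hour exposure of cells in 96-well plates to compound at five concentrations. Here, GI50 denotes the concentration required for 50% inhibition of growth.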 Calls of active or inactive are those of the source. Cut-off read from the data, not from the text of the source: active = GI50 up to about 1.1 µM and inactive = higher. Where only a bound is given, the exact number is not on record here.

Take `CN1CCc2c(sc3ncn(Nc4ccc(F)cc4)c(=N)c23)C1`: the GI50 in [1], in assay [2], in [3], in [4], in [5] and in [6] was > 100 µM (inactive) each time. Further, the GI50 in assay [7], in [8], in assay [9], in [10], in assay [11] and in assay [12] was > 100 µM (inactive) each time. For the same compound, the GI50 in assay [13], in [14], in assay [15], in assay [16], in assay [17] and in assay [18] was > 100 µM (inactive) each time. In addition, the GI50 in assay [19] was > 100 µM (inactive).

Regarding `CC/C(=C\c1ccc(OC)cc1)c1ccc(OC)cc1`, the GI50 in assay [1] was > 100 µM (inactive); in [2] it was 75.3 µM (inactive); in [3], > 100 µM (inactive); in [4], > 100 µM (inactive); in [5] it was 86.3 µM (inactive); in assay [6], > 100 µM (inactive). The GI50 in [7] is 66.7 µM (inactive); in [8], > 100 µM (inactive); in [9] it was > 100 µM (inactive); in [10] it was > 100 µM (inactive); in assay [20] it was > 100 µM (inactive); in assay [12] it was > 100 µM (inactive). In addition, the GI50 in assay [13] was > 100 µM (inactive); in assay [14] it was 30.1 µM (inactive); in [15], > 100 µM (inactive); in [16], 45.7 µM (inactive); in assay [17], 72.6 µM (inactive); in [18], > 100 µM (inactive). Further, the GI50 in [19] is 69.7 µM (inactive).

`CCOc1ccccc1/C=C(/C#N)C(N)=O`: the GI50 is 41.7 µM (inactive) in assay [1]; > 100 µM (inactive) in [2]; > 100 µM (inactive) in assay [3]; > 100 µM (inactive) in assay [4]; > 100 µM (inactive) in [5]; 18.7 µM (inactive) in assay [6]. Moreover, the GI50 is > 100 µM (inactive) in assay [7]; 10.3 µM (inactive) in assay [8]; > 100 µM (inactive) in [9]; 96.2 µM (inactive) in assay [10]; 23.9 µM (inactive) in assay [11]; > 100 µM (inactive) in assay [12]. Moreover, the GI50 in assay [13] was > 100 µM (inactive); in assay [14], 78.3 µM (inactive); in [15], 70.6 µM (inactive); in [16], 18.2 µM (inactive); in assay [17] it was > 100 µM (inactive); in assay [18], > 100 µM (inactive). Further, the GI50 in assay [19] is > 100 µM (inactive).

For the compound `COc1cc(CN(C)N2C(=O)c3cccc4cc([N+](=O)[O-])cc(c34)C2=O)cc(OC)c1OC`, the GI50 in [1] is > 100 µM (inactive); in [2] it was > 100 µM (inactive); in assay [3] it was > 100 µM (inactive); in assay [4], 81.3 µM (inactive); in [5], > 100 µM (inactive); in [6] it was > 100 µM (inactive). For the same compound, the GI50 in assay [7], in assay [8], in assay [10], in [11], in [13] and in assay [14] was > 100 µM (inactive) in each case. The GI50 in [16], in [17], in assay [18] and in assay [19] was > 100 µM (inactive) in each case.

For the compound `O=C(NCCCN1CCN(CCCNC(=O)Nc2cccc3ccccc23)CC1)Nc1cccc2ccccc12`, the GI50 in assay [1] is 17.5 µM (inactive); in assay [2] it was 13.2 µM (inactive); in [3], 17.3 µM (inactive); in [4], 2.25 µM (inactive); in assay [5], 16.2 µM (inactive); in [6] it was 15.6 µM (inactive). Further, the GI50 in assay [7] is 15.1 µM (inactive); in [8], 22.2 µM (inactive); in assay [9] it was 9.82 µM (inactive); in assay [10], 3.33 µM (inactive); in [20], 2.29 µM (inactive); in assay [12], 16.3 µM (inactive). In addition, the GI50 in assay [13] is 16.2 µM (inactive); in [14], 16.6 µM (inactive); in [15] it was 18 µM (inactive); in assay [16], 16.2 µM (inactive); in assay [17], 16.3 µM (inactive); in assay [18], 15.3 µM (inactive). In addition, the GI50 in assay [19] is 13.8 µM (inactive).

Regarding `COC(=O)[C@@H]1CO[C@H](C(C)(C)C)N1C(=O)N1C=CC(=O)C[C@H]1C`, the GI50 in assay [1], in assay [2], in [3], in [4], in [5] and in assay [6] was > 100 µM (inactive) in each case. For the same compound, the GI50 in [7], in assay [8], in assay [9], in assay [10], in assay [11] and in assay [12] was > 100 µM (inactive) throughout. Also, the GI50 in assay [13], in assay [14], in assay [16], in assay [17], in [18] and in assay [19] was > 100 µM (inactive) throughout.

With `COc1ccc(N2C(=O)C3ON(Cc4ccc(CC(N)=O)cc4)C(c4c5ccccc5c(C)c5ccccc45)C3C2=O)cc1` (centres undefined), the GI50 was 17.7 µM (inactive) in assay [1]; 30.1 µM (inactive) in [2]; 27.3 µM (inactive) in [3]; 36.5 µM (inactive) in assay [4]; 32.7 µM (inactive) in [5]; 22.3 µM (inactive) in [6]. Besides, the GI50 in [7] was 27 µM (inactive); in assay [8], 12.4 µM (inactive); in assay [9] it was 20.9 µM (inactive); in assay [10] it was 30.7 µM (inactive); in [11], 12.6 µM (inactive); in [12], 21.5 µM (inactive). Moreover, the GI50 in assay [13] was 20.7 µM (inactive); in assay [16] it was 27.2 µM (inactive); in [17], 24.3 µM (inactive); in assay [18], 46.1 µM (inactive); in assay [19], 19 µM (inactive).

`C[C@]12CC[C@H](O)CC1=CC[C@@H]1[C@@H]2CC[C@]2(C)C(=N/N)/C(=N\O)C[C@@H]12`: the GI50 in assay [1] was > 100 µM (inactive); in [2] it was 32.8 µM (inactive); in [3], 21 µM (inactive); in assay [4], 32.7 µM (inactive); in assay [5], > 100 µM (inactive); in [6], 11.9 µM (inactive). Besides, the GI50 in [7] is > 100 µM (inactive); in assay [8], 44.2 µM (inactive); in assay [9] it was 74.1 µM (inactive); in [10], 58.5 µM (inactive); in [11], 7.78 µM (inactive); in assay [12], > 100 µM (inactive). Also, the GI50 in assay [13] is > 100 µM (inactive); in assay [14], > 100 µM (inactive); in assay [15], > 100 µM (inactive); in assay [16] it was 2.12 µM (inactive); in assay [17] it was > 100 µM (inactive); in [18] it was 16.7 µM (inactive). In addition, the GI50 in [19] is 2.42 µM (inactive).

As for `CN(C)/N=N/c1ccc2[nH]c(=O)[nH]c2c1`, the GI50 in assay [1], in assay [2], in assay [3], in [4], in assay [5] and in [6] was > 100 µM (inactive) in each case. Besides, the GI50 is > 100 µM (inactive) in assay [7]; 62.2 µM (inactive) in assay [8]; > 100 µM (inactive) in [9]; > 100 µM (inactive) in [10]; > 100 µM (inactive) in assay [20]; > 100 µM (inactive) in assay [12]. The GI50 in assay [13], in assay [14], in [15], in assay [16], in assay [17] and in assay [18] was > 100 µM (inactive) throughout.

Regarding `c1ccc([P+](c2ccccc2)(c2ccccc2)c2ccc([P+](c3ccccc3)(c3ccccc3)c3ccccc3)cc2)cc1`, the GI50 in assay [1] was 32.4 µM (inactive); in assay [2], 31.3 µM (inactive); in [3], 59.7 µM (inactive); in assay [4] it was > 100 µM (inactive); in [5] it was 39.9 µM (inactive); in assay [6], 56.1 µM (inactive). Also, the GI50 was 88.5 µM (inactive) in assay [7]; 22.9 µM (inactive) in [8]; 71.6 µM (inactive) in assay [10]; 0.0815 µM (active) in assay [11]; > 100 µM (inactive) in [12]; > 100 µM (inactive) in [13]. Also, the GI50 in assay [14] is 41 µM (inactive); in assay [15], 24.8 µM (inactive); in [16], 49.5 µM (inactive); in assay [17], 82 µM (inactive); in [18] it was > 100 µM (inactive).

For `CS(=O)(=O)c1ccc2nc(-c3ccc(O)cc3)sc2c1`, the GI50 was 17.5 µM (inactive) in assay [1]; 16.4 µM (inactive) in [2]; 19.2 µM (inactive) in assay [3]; 20.6 µM (inactive) in [4]; 19 µM (inactive) in assay [5]; 17.7 µM (inactive) in assay [6]. For the same compound, the GI50 was 17.7 µM (inactive) in [7]; 25.2 µM (inactive) in assay [8]; 10.5 µM (inactive) in assay [9]; 17.9 µM (inactive) in [10]; 10.1 µM (inactive) in [11]; 17.9 µM (inactive) in assay [12]. In addition, the GI50 in assay [13] is 17.6 µM (inactive); in [14], 17.4 µM (inactive); in assay [15], 11 µM (inactive); in [16], 18 µM (inactive); in assay [17], 21.6 µM (inactive); in assay [18] it was 16.4 µM (inactive).
